Source: the NIST ThermoML archive (doi:10.1021/je0604232)
± gives the expanded uncertainty stated by the source.

Assay: molar heat capacity at constant pressure
Details: Liquid

CC(O)CN (configuration not stated) [1-amino-2-propanol]
101 kPa
Details | molar heat capacity at constant pressure [J/K/mol]
303.15 K | 209 ± 2
308.15 K | 213 ± 2
313.15 K | 214 ± 2
318.15 K | 215 ± 2
323.15 K | 217 ± 2
328.15 K | 218 ± 2
333.15 K | 221 ± 2
338.15 K | 223 ± 2
343.15 K | 225 ± 2
348.15 K | 228 ± 2
353.15 K | 230 ± 2

CN(C)CCO [2-(N,N-dimethylamino)ethanol]
101 kPa
Details | molar heat capacity at constant pressure [J/K/mol]
303.15 K | 213 ± 2
308.15 K | 215 ± 2
313.15 K | 217 ± 2
318.15 K | 219 ± 2
323.15 K | 221 ± 2
328.15 K | 222 ± 2
333.15 K | 223 ± 2
338.15 K | 223 ± 2
343.15 K | 223 ± 2
348.15 K | 224 ± 2
353.15 K | 226 ± 2

CNCCO [2-(methylamino)ethanol]
101 kPa
Details | molar heat capacity at constant pressure [J/K/mol]
303.15 K | 194 ± 2
308.15 K | 199 ± 2
313.15 K | 200 ± 2
318.15 K | 202 ± 2
323.15 K | 203 ± 2
328.15 K | 205 ± 2
333.15 K | 206 ± 2
338.15 K | 207 ± 2
343.15 K | 208 ± 2
348.15 K | 210 ± 2
353.15 K | 212 ± 2

NCCO [2-aminoethan-1-ol]
101.33 kPa
Details | molar heat capacity at constant pressure [J/K/mol]
303.15 K | 168 ± 1
308.15 K | 169 ± 1
313.15 K | 169 ± 1
318.15 K | 171 ± 2
323.15 K | 173 ± 2
328.15 K | 174 ± 2
333.15 K | 175 ± 2
338.15 K | 178 ± 2
343.15 K | 179 ± 2
348.15 K | 180 ± 2
353.15 K | 182 ± 2

NCCCO [3-amino-1-propanol]
101 kPa
Details | molar heat capacity at constant pressure [J/K/mol]
303.15 K | 204 ± 2
308.15 K | 207 ± 2
313.15 K | 208 ± 2
318.15 K | 208 ± 2
323.15 K | 209 ± 2
328.15 K | 210 ± 2
333.15 K | 211 ± 2
338.15 K | 213 ± 2
343.15 K | 214 ± 2
348.15 K | 216 ± 2
353.15 K | 217 ± 2

NCCNCCO [N-(2-aminoethyl)ethanolamine]
101 kPa
Details | molar heat capacity at constant pressure [J/K/mol]
303.15 K | 279 ± 2
308.15 K | 284 ± 2
313.15 K | 285 ± 2
318.15 K | 286 ± 2
323.15 K | 287 ± 2
328.15 K | 289 ± 2
333.15 K | 290 ± 2
338.15 K | 292 ± 2
343.15 K | 293 ± 2
348.15 K | 295 ± 2
353.15 K | 296 ± 2

CN(CCO)CCO [N-methyldiethanolamine]
101.33 kPa
Details | molar heat capacity at constant pressure [J/K/mol]
303.15 K | 273 ± 2
308.15 K | 276 ± 2
313.15 K | 279 ± 2
318.15 K | 282 ± 2
323.15 K | 285 ± 2
328.15 K | 288 ± 2
333.15 K | 290 ± 2
338.15 K | 294 ± 2
343.15 K | 298 ± 2
348.15 K | 301 ± 3
353.15 K | 304 ± 3
